Laboratory results published in patent publication US20250255867A1 (Kadmon Corporation, LLC, priority 2022, published 2025).
Values joined by “and” are separate entries in the source; they are usually repeats but may differ in a detail not shown here. Equal values may be shown once. Read-outs that look alike come from different tables or passages of the source.

## CC(C)NC(=O)COc1cccc(-c2nc(Nc3ccc4[nH]ncc4c3)c3ccccc3n2)c1 [Belumosudil, 2-{3-[4-(1H-indazol-5-ylamino)-2-quinazolinyl]phenoxy}-N-(propan-2-yl) acetamide]
Cohort 3 400 mg QD
  Thrombocytosis: # Events: 0
  Thrombocytosis: Affected/At Risk: 0/21
  Thrombocytosis: Affected/At Risk (%): (0%)
  Tinea pedis: # Events: 0
  Tinea pedis: Affected/At Risk: 0/21
  Tinea pedis: Affected/At Risk (%): (0%)
  Tooth fracture: # Events: 0
  Tooth fracture: Affected/At Risk: 0/21
  Tooth fracture: Affected/At Risk (%): (0%)
  Total Other Adverse Events: Affected/At Risk: 19/21
  Total Other Adverse Events: Affected/At Risk (%): (90.48%)
  Transfusion reaction: # Events: 0
  Transfusion reaction: Affected/At Risk: 0/21
  Transfusion reaction: Affected/At Risk (%): (0%)
  Tremor: # Events: 4
  Tremor: Affected/At Risk: 3/21
  Tremor: Affected/At Risk (%): (14.29%)
  Type 2 diabetes mellitus: # Events: 0
  Type 2 diabetes mellitus: Affected/At Risk: 0/21
  Type 2 diabetes mellitus: Affected/At Risk (%): (0%)
  Ulcerative keratitis: # Events: 0
  Ulcerative keratitis: Affected/At Risk: 0/21
  Ulcerative keratitis: Affected/At Risk (%): (0%)
  Upper respiratory tract infection: # Events: 9
  Upper respiratory tract infection: Affected/At Risk: 7/21
  Upper respiratory tract infection: Affected/At Risk (%): (33.33%)
  Upper-airway cough syndrome: # Events: 1
  Upper-airway cough syndrome: Affected/At Risk: 1/21
  Upper-airway cough syndrome: Affected/At Risk (%): (4.76%)
  Urinary retention: # Events: 0
  Urinary retention: Affected/At Risk: 0/21
  Urinary retention: Affected/At Risk (%): (0%)
  Urinary tract infection: # Events: 0
  Urinary tract infection: Affected/At Risk: 0/21
  Urinary tract infection: Affected/At Risk (%): (0%)
  Urinary tract pain: # Events: 1
  Urinary tract pain: Affected/At Risk: 1/21
  Urinary tract pain: Affected/At Risk (%): (4.76%)
  Urine output decreased: # Events: 0
  Urine output decreased: Affected/At Risk: 0/21
  Urine output decreased: Affected/At Risk (%): (0%)
  Vascular access complication: # Events: 0
  Vascular access complication: Affected/At Risk: 0/21
  Vascular access complication: Affected/At Risk (%): (0%)
  Vertigo: # Events: 0
  Vertigo: Affected/At Risk: 0/21
  Vertigo: Affected/At Risk (%): (0%)
  Vision blurred: # Events: 4
  Vision blurred: Affected/At Risk: 4/21
  Vision blurred: Affected/At Risk (%): (19.05%)
  Vomiting: # Events: 4
  Vomiting: Affected/At Risk: 4/21
  Vomiting: Affected/At Risk (%): (19.05%)
  Weight decreased: # Events: 4
  Weight decreased: Affected/At Risk: 2/21
  Weight decreased: Affected/At Risk (%): (9.52%)
  Weight increased: # Events: 4
  Weight increased: Affected/At Risk: 1/21
  Weight increased: Affected/At Risk (%): (4.76%)
  White blood cell count decreased: # Events: 2
  White blood cell count decreased: Affected/At Risk: 1/21
  White blood cell count decreased: Affected/At Risk (%): (4.76%)
Cohort 3 400 mg QD n=21
  ALT/AST increased all grade, No.: 2
  ALT/AST increased grade ≥3, No.: 0
  Anemia grade ≥3, No.: 0
  Any AE, No. of patients: 16
  Cough all grade, No.: 7
  Death, No.: 2
  Diarrhea all grade, No.: 7
  Drug-related AE, No.: 14
  Drug-related SAE, No.: 0
  Dyspnea all grade, No.: 7
  Dyspnea grade ≥3, No.: 4
  Fatigue all grade, No.: 9
  Grade ≥3 AE, No.: 14
  Headache all grade, No.: 6
  Hyperglycemia grade ≥3, No.: 2
  Hypertension all grade, No.: 4
  Hypoxia grade ≥3, No.: 2
  Lung infection or pneumonia grade ≥3, No.: 2
  Nausea all grade, No.: 8
  Peripheral edema all grade, No.: 6
  SAE, No.: 12
  URI all grade, No.: 7
Example 1
  Cytomegalovirus (CMV) infection or reactivation: no reported CMV infection or reactivation
  Patients who discontinued because of potentially drug-related AEs: Three
Example 1, listed as belumosudil
  Cytomegalovirus (CMV) infection or reactivation: No cases
Total N=54
  AE cough, patients: 22%
  AE diarrhea, patients: 33%
  AE dyspnea, patients: 30%
  AE fatigue, patients: 33%
  AE headache, patients: 24%
  AE hypertension, patients: 20%
  AE increased liver function tests, patients: 33%
  AE nausea, patients: 33%
  AE peripheral edema, patients: 24%
  AE upper respiratory infection, patients: 46%
  ALT/AST increased all grade, No.: 18
  ALT/AST increased grade ≥3, No.: 4
  Anemia grade ≥3, No.: 3
  Any AE, No. of patients: 53
  Cough all grade, No.: 12
  Death, No.: 2
  Diarrhea all grade, No.: 18
  Drug-related AE, No.: 30
  Drug-related SAE, No.: 0
  Dyspnea all grade, No.: 16
  Dyspnea grade ≥3, No.: 7
  Fatigue all grade, No.: 18
  Grade ≥3 AE, No.: 33
  Grade ≥3 AE, patients: Sixty-one
  Grade ≥3 cytopenias, patients: 4%
  Grade ≥3 dyspnea, patients: 13%
  Grade ≥3 hyperglycemia, patients: 7%
  Grade ≥3 hypoxia, patients: 7%
  Grade ≥3 increased liver function tests, patients: 7%
  Headache all grade, No.: 13
  Hyperglycemia grade ≥3, No.: 4
  Hypertension all grade, No.: 11
  Hypoxia grade ≥3, No.: 4
  Lung infection or pneumonia grade ≥3, No.: 5
  Nausea all grade, No.: 18
  Peripheral edema all grade, No.: 13
  SAE, No.: 23
  Serious AE dyspnea, patients: 7%
  Serious AE hypoxia, patients: 4%
  Serious AE influenza-like illness, patients: 4%
  Serious AE lung infection, patients: 6%
  Serious AEs, patients: 43%
  URI all grade, No.: 25
all
  Patients with dose interruptions: 41%
  Patients with dose reductions: 9%
All in cohort 3, none attributed to belumosudil
  Patients who died during the study: Four
In vivo
  Eyelid margin crusting: Affected/At Risk: 1/17 and 0/16 and 0/21
overall
  Median relative dose intensity: 98%
range, 2-39 days
  Median duration of dose interruption: 10 days
range, 21-859 days
  Median duration of dose reduction: 97 days
